Experimental data as given in US20260241307A1, “PROCESS FOR MAKING DRUG CRYSTALS OF DESIRED SIZE DISTRIBUTION AND MORPHOLOGY” (EUPRAXIA PHARMACEUTICALS INC., priority 2019, published 2026).

Experiments:
Format in all cases: physicochemical
[1] = Laser diffraction particle size analysis of recrystallized crystals; settings: large scale batch, recrystallized from methanol, slow evaporation, isotherm 25° C.
Source text: As used herein, laser diffraction is the methodology used for measuring and analyzing particle size and size distribution of a sample or collection of particles (e.g., the recrystallized columnar crystals and the sized crystals). More specifically, a D10 value refers to the diameter at which 10% of the sample's mass is comprised of particles with a diameter less than this value. Likewise, a D50 value is the diameter of the particle that 50% of a sample's mass is smaller than and 50% of a sample's mass is larger than the value.
In histogram, D10, D50 and D90 are intercepts for 10%, 50% and 90% of the cumulative mass in the particles size. Since the density is the same for all particles, then the mass and volume are linearly related, thus the % remains the same. The method used also reports the cumulative distribution in volume.
Different large-scale batches were run to show the reproducibility of the recrystallization method. Laser diffraction results of particle size analysis for four large scale batches are below:
(§1) The laser diffraction method assumes an equivalent sphere when calculating the results. The aspect ratio in the imaging analysis show a range of aspect ratio from 3 to 50, while a majority of aspect ratios are in the range of 5-20.

[2] = Imaging analysis of aspect ratio
Source text: as §1

[3] = Particle size distribution by Malvern particle size analyzer (sized crystals); settings: after milling in rotor/stator homogenizer and sieving
Source text: The milled crystals were then sieved through two separate sieves to eliminate fines or remnant large crystals. […] As shown, the drug crystal obtained have relatively narrow distribution and the minimal amount of fine material and absence of very fine material (no particles below 9 μm).

SMILES	D10 [1] [µm]	D50 [1] [µm]	D90 [1] [µm]	aspect ratio, majority ([2]; majority of aspect ratios)	aspect ratio, range ([2]; whole range)	smallest particle size (no particles below) [3] [μm]
CCC(=O)O[C@]1(C(=O)SCF)[C@H](C)C[C@H]2[C@@H]3C[C@H](F)C4=CC(=O)C=C[C@]4(C)[C@@]3(F)[C@@H](O)C[C@@]21C [Batch 1, fluticasone propionate]	119	365	876	–	–	–
CCC(=O)O[C@]1(C(=O)SCF)[C@H](C)C[C@H]2[C@@H]3C[C@H](F)C4=CC(=O)C=C[C@]4(C)[C@@]3(F)[C@@H](O)C[C@@]21C [Batch 2, fluticasone propionate]	97	323	838	–	–	–
CCC(=O)O[C@]1(C(=O)SCF)[C@H](C)C[C@H]2[C@@H]3C[C@H](F)C4=CC(=O)C=C[C@]4(C)[C@@]3(F)[C@@H](O)C[C@@]21C [Batch 3, fluticasone propionate]	72	253	798	–	–	–

Next, values leading:

D10 [1] [µm]	D50 [1] [µm]	D90 [1] [µm]	aspect ratio, majority ([2]; majority of aspect ratios)	aspect ratio, range ([2]; whole range)	smallest particle size (no particles below) [3] [μm]	SMILES
82	288	820	–	–	–	CCC(=O)O[C@]1(C(=O)SCF)[C@H](C)C[C@H]2[C@@H]3C[C@H](F)C4=CC(=O)C=C[C@]4(C)[C@@]3(F)[C@@H](O)C[C@@]21C [Batch 4, fluticasone propionate]
–	–	–	5-20	3 to 50	–	CCC(=O)O[C@]1(C(=O)SCF)[C@H](C)C[C@H]2[C@@H]3C[C@H](F)C4=CC(=O)C=C[C@]4(C)[C@@]3(F)[C@@H](O)C[C@@]21C [recrystallized fluticasone propionate, fluticasone propionate]
–	–	–	–	–	≥ 9	CCC(=O)O[C@]1(C(=O)SCF)[C@H](C)C[C@H]2[C@@H]3C[C@H](F)C4=CC(=O)C=C[C@]4(C)[C@@]3(F)[C@@H](O)C[C@@]21C [resized drug crystals, fluticasone propionate]
